Assay [1] deals with HCC827 human non-small cell lung cancer (NSCLC) cells. It counts as in vivo. As to conditions: day 40, SCID mice. From the text: (§1) Animals were housed 4-5/cage in micro-isolators, with a 12 hr/12 hr light/dark cycle, acclimated for at least 1 week prior to use and fed normal laboratory chow ad libitum.
Assay [2] relates to human NSCLC cell line NCI-H1975. It counts as in vivo. The note with it: 3 doses, day 32, SCID mice. How it is done: FBS was obtained from ATCC and all other reagents were obtained from Invitrogen Corp. (Carlsbad, Calif., USA). Cells that had been cryopreserved in liquid nitrogen were rapidly thawed at 37° C. and transferred to a tissue culture flask containing growth media and then incubated at 37° C. in a 5% CO2 incubator. […] To inactivate the trypsin, 5 mL of growth media was added and then the contents of the flask were centrifuged to pellet the cells. The supernatant was aspirated and the cell pellet was resuspended in 10 mL of growth media and the cell number determined using a hemocytometer. Cells were seeded into 175 cm^2 flasks containing 50 mL of growth media and incubated at 37° C. in a 5% CO2 incubator.
as §1

Assay [3] concerns NCI-H1975 non-small cell lung carcinoma cells. In words: Single agent IC50, alamarBlue cell viability (Example 3), NCI-H1975. As to conditions: XLFit. It is filed as cell-based, human. How it is done: (§2) Cell viability was measured using the alamarBlue assay. In brief, cells were plated in 96-well plates in triplicate at 2000 cells per well (H1975) or 5000 cells per well (HEL92.1.7) and incubated at 37° C., 5% CO2 atmosphere for 24 hr prior to the addition of drug or vehicle (0.3% DMSO) to the culture medium. After 72 hr, 10 μl/well alamarBlue was added to the wells and incubated for an additional 3 hr at 37° C., 5% CO2 atmosphere. Fluorescence (560EX/590EM […]) was measured with a SpectraMax microplate reader (Molecular Devices) and the resulting data were used to calculate cell viability, normalized to vehicle control. […] After 72 hr exposure to drug, cell viability was measured.
For orientation: The colour change of resazurin is a common sign of viable cells or microbes.

In the next assay the test system is HT29 colon cancer cells. In words: Single agent IC50, alamarBlue cell viability (Example 3), HT29. It counts as cell-based, human. As to conditions: XLFit.
Assay [4] has as its system HEL92.1.7 erythroleukemia cells. The experiment in a line: Single agent IC50, alamarBlue cell viability (Example 3), HEL92.1.7. It counts as cell-based, human. As to conditions: XLFit. How it is done: as §2
In the next assay the test system is H1975 cells. The experiment in a line: Single agent IC50 in H1975 cells, alamarBlue viability (Example 2). It is filed as cell-based, human. As to conditions: XLFit. How it is done: After 72 h exposure to either drug, viability was determined by alamarBlue, data from which was used to calculate the IC50 values using XLFit software (ID Business Solutions).
[5] abbreviates: 72 hr exposure, read-out: Single agent IC50 values, HEL-92.1.7.

The record followed here is US20120245186A1, “COMBINATION CANCER THERAPY WITH HSP90 INHIBITORY COMPOUNDS” (SYNTA PHARMACEUTICALS CORP., priority 2009, published 2012).

Molecules are shown by their SMILES. Read-outs that look alike come from different tables or passages of the source.

One may read the IC50 as the concentration that inhibits the measured activity by half. As for `CC(C)c1cc(-c2nnc(O)n2-c2ccc3c(ccn3C)c2)c(O)cc1O` [Compound 1, 3-(2,4-dihydroxy-5-isopropyl-phenyl)-4-(1-methyl-indol-5-yl)-5-hydroxy-[1,2,4] triazole], the “% T/C value” came out at 26% in assay [1] (Compound 1 75 mg/kg 1×/week) and 55% in assay [2] (Compound 1 50 mg/kg i.v. 1 time per week). The concentration for half-maximal inhibition (IC50) came out at 13 nM in assay [3] (Homo sapiens, NCI-H1975, 72 hr exposure); 36 nM with HT29 colon cancer cells (Homo sapiens, HT-29, 72 hr exposure); 32 nM in assay [4] (Homo sapiens, HEL 92.1.7, 72 hr exposure); 15 nM in the assay on H1975 cells (Homo sapiens, NCI-H1975, 72 h exposure).

As for `CC(=O)O[C@@]12CO[C@@H]1C[C@H](O)[C@@]1(C)C(=O)[C@H](O)C3=C(C)[C@@H](OC(=O)[C@H](O)[C@@H](NC(=O)OC(C)(C)C)c4ccccc4)C[C@@](O)([C@@H](OC(=O)c4ccccc4)[C@H]21)C3(C)C` [docetaxel], the “% T/C value” in assay [1] (docetaxel 4 mg/kg 1×/week) worked out at 46%. Besides, the IC50 turned out to be 1 nM in assay [3] (72 hr exposure), 0.6 nM with HT29 colon cancer cells (72 hr exposure) and 14 nM in assay [4] (setting [5]).

For the compound `CC(=O)O[C@H]1C(=O)[C@@]2(C)[C@H]([C@H](OC(=O)c3ccccc3)[C@]3(O)C[C@H](OC(=O)[C@H](O)[C@@H](NC(=O)c4ccccc4)c4ccccc4)C(C)=C1C3(C)C)[C@]1(OC(C)=O)CO[C@@H]1C[C@@H]2O` [paclitaxel], in assay [2] (paclitaxel 7.5 mg/kg i.v. 1 time per week), the “% T/C value” was 38%. Moreover, the IC50 worked out at 4 nM in assay [3] (72 hr exposure), 25 nM in assay [4] (setting [5]) and 7 nM in the assay on H1975 cells (72 h exposure).
